According to patent US10538491B2, “4,5-substituted picolinamide and picolinonitrile metabotropic glutamate receptor 2 negative allosteric modulators” (Vanderbilt University, priority 2015, dated 2020):

Target: rat mGlu2 (Rattus norvegicus (Rat), UniProt P31421)
Assay: mGlu2 Ca2+ flux assay
Format: cell-based
Details: for IC50: Gα15 HEK293 cells stably expressing rat mGlu2, glutamate EC80, >10,000 = no plateau, >30,000 = no measurable activity; for rat mGlu2 Glu max / remaining activity at 30 µM: amplitude of response in the presence of 30 μM test compound as percentage of maximal response to glutamate; for remaining activity at 30 µM: read-out: rat mGlu2 Glu max
Procedure, shortened: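 Gα15 HEK293 cells stably expressing rat mGlu2, Fluo-4 loaded; compound added, then glutamate at EC20 after 2.3 min and EC80 afterward, calcium flux read as F/F0. Peak amplitude around EC80 addition normalized to glutamate max; IC50 by unconstrained 4-parameter fit, top concentration 30 μM.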

Sequence of rat mGlu2 (P31421 19-872): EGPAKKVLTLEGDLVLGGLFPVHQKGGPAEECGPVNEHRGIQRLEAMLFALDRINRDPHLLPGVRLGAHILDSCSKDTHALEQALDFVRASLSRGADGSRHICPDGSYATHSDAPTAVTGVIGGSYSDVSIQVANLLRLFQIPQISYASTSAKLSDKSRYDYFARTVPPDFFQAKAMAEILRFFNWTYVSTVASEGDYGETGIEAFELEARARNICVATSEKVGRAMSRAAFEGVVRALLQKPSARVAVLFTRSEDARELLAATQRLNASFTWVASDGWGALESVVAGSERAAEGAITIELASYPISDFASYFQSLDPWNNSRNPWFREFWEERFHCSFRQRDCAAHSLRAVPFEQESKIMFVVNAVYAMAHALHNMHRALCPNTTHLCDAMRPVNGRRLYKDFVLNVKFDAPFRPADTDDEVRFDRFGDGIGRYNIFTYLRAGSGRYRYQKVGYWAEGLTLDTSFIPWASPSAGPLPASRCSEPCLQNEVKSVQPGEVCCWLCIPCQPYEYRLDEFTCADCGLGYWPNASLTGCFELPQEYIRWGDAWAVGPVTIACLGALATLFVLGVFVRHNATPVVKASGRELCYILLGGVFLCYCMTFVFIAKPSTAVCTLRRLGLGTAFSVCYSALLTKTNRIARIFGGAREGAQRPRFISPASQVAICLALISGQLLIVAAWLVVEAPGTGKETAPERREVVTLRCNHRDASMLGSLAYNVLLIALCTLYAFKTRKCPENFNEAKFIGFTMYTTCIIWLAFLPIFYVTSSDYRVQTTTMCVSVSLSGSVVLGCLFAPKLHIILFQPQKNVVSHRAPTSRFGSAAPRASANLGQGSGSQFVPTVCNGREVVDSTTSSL

In the case of `Cc1ccc(OCCCOc2cnc(C(N)=O)cc2-c2ccc(F)cc2)cn1` [Compound 129], the IC50 is reported as 2870 nM and the “rat mGlu2 Glu max” value is reported as 2.91%.
With `NC(=O)c1cc(-c2ccc(F)cc2)c(OCCOCc2ccccc2)cn1` [Compound 130, 5-(2-(benzyloxy)ethoxy)-4-(4-fluorophenyl)picolinamide] the IC50 was 2250 nM and the remaining activity at 30 µM was 9.91%.
`CN(CCOCc1cncc(F)c1)c1cnc(C(N)=O)cc1-c1ccc(F)cc1` [Compound 131, 4-(4-fluorophenyl)-5-((2-((5-fluoropyridin-3-yl)methoxy)ethyl)(methyl)amino)picolinamide] was tested, and the IC50 was 5770 nM and the remaining activity at 30 µM was 2.62%.
With `NC(=O)c1cc(-c2ccc(F)cc2)c(NCC2CCOCC2)cn1` [Compound 132, 4-(4-fluorophenyl)-5-(((tetrahydro-2H-pyran-4-yl)methyl)amino)picolinamide] the IC50 was 1050 nM and the remaining activity at 30 µM was -1.48%.
Compound `NC(=O)c1cc(-c2ccc(F)cc2)c(NCCN2CCOCC2)cn1` [Compound 133, 4-(4-fluorophenyl)-5-((2-morpholinoethyl)amino)picolinamide] has an IC50 of 6540 nM and a remaining activity at 30 µM of -4.31%.
`CC(CN1CCOCC1)Nc1cnc(C(N)=O)cc1-c1ccc(F)cc1` (stereo not drawn) [Compound 134, 4-(4-fluorophenyl)-5-((1-morpholinopropan-2-yl)amino)picolinamide] gave an IC50 of 2710 nM and a remaining activity at 30 µM of -3.71%.
`CC(CNc1cnc(C(N)=O)cc1-c1ccc(F)cc1)N1CCOCC1` (stereo not drawn) [Compound 135, 4-(4-fluorophenyl)-5-((2-morpholinopropyl)amino)picolinamide] showed an IC50 of 5700 nM and a remaining activity at 30 µM of 1.19%.
In the case of `CN(CCN1CCOCC1)c1cnc(C(N)=O)cc1-c1ccc(F)cc1` [Compound 136, 4-(4-fluorophenyl)-5-(methyl(2-morpholinoethyl)amino)picolinamide], the IC50 is reported as over 10000 nM and the remaining activity at 30 µM is reported as 31%.
In the case of `NC(=O)c1cc(-c2ccc(F)cc2)c(NCCCN2CCOCC2)cn1` [Compound 137, 4-(4-fluorophenyl)-5-((3-morpholinopropyl)amino)picolinamide], the IC50 is reported as 9870 nM and the remaining activity at 30 µM is reported as -13.5%.
`NC(=O)c1cc(-c2ccc(F)cc2)c(N2CCC(Oc3ccnc(C(F)(F)F)c3)CC2)cn1` [Compound 138, 4-(4-fluorophenyl)-5-(4-((2-(trifluoromethyl)pyridin-4-yl)oxy)piperidin-1-yl)picolinamide] showed an IC50 of over 10000 nM.
With `Cc1ccc(OC2CCN(c3cnc(C(N)=O)cc3-c3ccc(F)cc3)CC2)cn1` [Compound 139, 4-(4-fluorophenyl)-5-(4-((6-methylpyridin-3-yl)oxy)piperidin-l-yl)picolinamide] the IC50 was 9590 nM and the “rat mGlu2 Glu max” value was 7.04%.
With `NC(=O)c1cc(-c2ccc(F)cc2)c(N2CCC(Oc3cccnc3)CC2)cn1` [Compound 140, 4-(4-fluorophenyl)-5-(4-(pyridin-3-yloxy)piperidin-1-yl)picolinamide] the IC50 was over 10000 nM and the remaining activity at 30 µM was 29.8%.
Work on `NC(=O)c1cc(-c2ccc(F)cc2)c(N2CC(Oc3ccc(C(F)(F)F)nc3)C2)cn1` [Compound 141, 4-(4-fluorophenyl)-5-(3-((6-(trifluoromethyl)pyridin-3-yl)oxy)azetidin-1-yl)picolinamide] yielded an IC50 of over 10000 nM and a remaining activity at 30 µM of 53.9%.
With `Cc1ccc(OC2CN(c3cnc(C(N)=O)cc3-c3ccc(F)cc3)C2)cn1` [Compound 142, 4-(4-fluorophenyl)-5-(3-((6-methylpyridin-3-yl)oxy)azetidin-1-yl)picolinamide] the IC50 was 1280 nM and the remaining activity at 30 µM was 2.35%.
Compound `NC(=O)c1cc(-c2ccc(F)cc2)c(N2CC(Oc3cccnc3)C2)cn1` [Compound 143, 4-(4-fluorophenyl)-5-(3-(pyridin-3-yloxy)azetidin-1-yl)picolinamide] has an IC50 of 2030 nM and a remaining activity at 30 µM of 7.01%.
For `NC(=O)c1cc(-c2ccc(F)cc2)c(N2CCC(Oc3ccnc(C(F)(F)F)c3)C2)cn1` (stereo not drawn) [Compound 144, 4-(4-fluorophenyl)-5-(3-((2-(trifluoromethyl)pyridin-4-yl)oxy)pyrrolidin-1-yl)picolinamide], the IC50 was 7450 nM and the remaining activity at 30 µM was 1.28%.
`N#Cc1cccc(COc2cnc(C(N)=O)cc2-c2ccc(F)cc2)c1` [Compound 145, 5-((3-Cyanobenzyl)oxy)-4-(4-fluorophenyl)picolinamide] was tested, and the IC50 was 429 nM and the remaining activity at 30 µM was 1.5%.
`N#Cc1cc(F)cc(COc2cnc(C(N)=O)cc2-c2ccc(F)cc2)c1` [Compound 146, 5-((3-cyano-5-fluorobenzyl)oxy)-4-(4-fluorophenyl)picolinamide] showed an IC50 of 944 nM and a remaining activity at 30 µM of 0.48%.
Work on `N#Cc1ccc(F)c(COc2cnc(C(N)=O)cc2-c2ccc(F)cc2)c1` [Compound 147, 5-((5-cyano-2-fluorobenzyl)oxy)-4-(4-fluorophenyl)picolinamide] yielded an IC50 of 313 nM and a remaining activity at 30 µM of 0.73%.
In the case of `N#Cc1cc(COc2cnc(C(N)=O)cc2-c2ccc(F)cc2)ccc1F` [Compound 148, 5-((3-cyano-4-fluorobenzyl)oxy)-4-(4-fluorophenyl)picolinamide], the IC50 is reported as 1680 nM and the remaining activity at 30 µM is reported as 0.43%.
`N#Cc1cccc(COc2cnc(C(N)=O)cc2-c2ccc(F)cc2)c1F` [Compound 149, 5-((3-cyano-2-fluorobenzyl)oxy)-4-(4-fluorophenyl)picolinamide] showed an IC50 of 254 nM and a remaining activity at 30 µM of 1.66%.
`N#Cc1ccccc1COc1cnc(C(N)=O)cc1-c1ccc(F)cc1` [Compound 150, 5-((2-cyanobenzyl)oxy)-4-(4-fluorophenyl)picolinamide] showed an IC50 of 98 nM and a remaining activity at 30 µM of 1.14%.
With `N#Cc1cncc(COc2cnc(C(N)=O)cc2-c2ccc(F)cc2)c1` [Compound 151] the IC50 was 683 nM and the “rat mGlu2 Glu max” value was 2.05%.
In the case of `N#Cc1cccc(OCCOc2cnc(C(N)=O)cc2-c2ccc(F)cc2)c1` [Compound 152, 5-(2-(3-cyanophenoxy)ethoxy)-4-(4-fluorophenyl)picolinamide], the IC50 is reported as 1220 nM and the remaining activity at 30 µM is reported as 1.44%.
`N#Cc1cc(F)cc(OCCOc2cnc(C(N)=O)cc2-c2ccc(F)cc2)c1` [Compound 153, 5-(2-(3-cyano-5-fluorophenoxy)ethoxy)-4-(4-fluorophenyl)picolinamide] gave an IC50 of 1370 nM and a remaining activity at 30 µM of 1.58%.
Compound `N#Cc1cc(OCCOc2cnc(C(N)=O)cc2-c2ccc(F)cc2)ccc1F` [Compound 154, 5-(2-(3-cyano-4-fluorophenoxy)ethoxy)-4-(4-fluorophenyl)picolinamide] has an IC50 of 1390 nM and a remaining activity at 30 µM of 4.19%.
For `N#Cc1cccc(OCCOc2cnc(C(N)=O)cc2-c2ccc(F)cc2)c1F` [Compound 155, 5-(2-(3-cyano-2-fluorophenoxy)ethoxy)-4-(4-fluorophenyl)picolinamide], the IC50 was 528 nM and the remaining activity at 30 µM was 1.07%.
`N#Cc1ccc(F)c(OCCOc2cnc(C(N)=O)cc2-c2ccc(F)cc2)c1` [Compound 156, 5-(2-(5-cyano-2-fluorophenoxy)ethoxy)-4-(4-fluorophenyl)picolinamide] was tested, and the IC50 was 4230 nM and the remaining activity at 30 µM was -21.7%.
Compound `N#Cc1cncc(OCCOc2cnc(C(N)=O)cc2-c2ccc(F)cc2)c1` [Compound 157, 5-(2-((5-cyanopyridin-3-yl)oxy)ethoxy)-4-(4-fluorophenyl)picolinamide] has an IC50 of 691 nM and a remaining activity at 30 µM of 4.33%.
